Earlier results as cited in article PMC6437649 (Molecular Pharmaceutics, 2019).

In the case of C#C[C@]1(O)CC[C@H]2[C@@H]3CCC4=Cc5oncc5C[C@]4(C)[C@H]3CC[C@@]21C [danazol], the “log P” value is listed as 4.9.
